# Results published in PubChem BioAssay AID755 (The Scripps Research Institute Molecular Screening Center, 2007).
# pIC50: −log10 of the molar value. Active and inactive are the calls of the source.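 Rule for the calls: active = IC50 at or below 10 micromolar; inactive = IC50 above 10 micromolar.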
# Biological target: 5-hydroxytryptamine receptor 1A (Homo sapiens) (UniProt P08908)
# Assay: human 5-HT1A antagonist potency, dose response, cell-based, CHO, Ga15 NFAT-bla reporter (AID 755)
# Details: CHO 5-HT1A Ga15 NFAT-BLA reporter, FRET antagonist
# Chain of 5-hydroxytryptamine receptor 1A (Homo sapiens) (P08908 whole entry, looked up): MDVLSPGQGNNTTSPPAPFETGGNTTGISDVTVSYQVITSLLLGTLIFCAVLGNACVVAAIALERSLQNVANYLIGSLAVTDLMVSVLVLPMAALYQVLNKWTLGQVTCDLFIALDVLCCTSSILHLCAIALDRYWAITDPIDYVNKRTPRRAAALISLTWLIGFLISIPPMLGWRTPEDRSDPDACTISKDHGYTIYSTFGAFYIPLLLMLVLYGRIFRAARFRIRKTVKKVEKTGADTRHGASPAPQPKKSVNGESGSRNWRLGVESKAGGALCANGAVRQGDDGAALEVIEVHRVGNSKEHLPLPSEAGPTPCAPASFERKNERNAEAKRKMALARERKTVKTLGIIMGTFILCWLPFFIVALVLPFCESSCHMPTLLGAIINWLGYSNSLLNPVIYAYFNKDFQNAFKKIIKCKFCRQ
SMILES,IC50,pIC50
COc1cc2c(cc1OC)C1=C(C#N)CC/C(=N\S(=O)(=O)c3ccccc3)N1CC2,> 40 µM (inactive),
COc1ccc(N2C(=O)CC(NCc3ccncc3)C2=O)cc1 (stereo not given),> 40 µM (inactive),

# The remaining lines, values ahead:
IC50,pIC50,SMILES
inactive,,O=C1C2C3C=CC(CO)(O3)C2C(=O)N1c1ccc(-c2ccccc2)cc1 (stereo not given)
,5.13,CC(=O)Oc1ccc(N2C(=O)C3C(C2=O)C2(C)C=CC3(C)O2)cc1 (stereo not given)
,5.73,CSc1ccccc1N=CC1=C(O)CC(C)(C)CC1=O
